We go through 1 molecule from publication PMC5125695, “Antiviral Efficacy of Verdinexor In Vivo in Two Animal Models of Influenza A Virus Infection” (PLoS ONE, 2016).

Entries after “also recorded” stand apart in the source; their conditions may differ.

In this assay the test system is Influenza A/WSN/33. The assay is classed as cell-based.

`O=C(/C=C\n1cnc(-c2cc(C(F)(F)F)cc(C(F)(F)F)c2)n1)NNc1ccccn1` [verdinexor]: the “Sensitivity of passaged virus to verdinexor” value is “did not result in a reduction of drug sensitivity; also recorded: remained sensitive”.
